Assay results from the NIST ThermoML archive (doi:10.1021/je600567z).

Experiment: activity coefficient (dimensionless); of the first substance listed, at infinite dilution; xn = mol fraction of the nth substance listed
Conditions: Liquid, x1 = 0

CC(C)CO [2-methyl-1-propanol] + O
Conditions | activity coefficient
273.35 K, Relative Headspace Analysis | 31.6
283.15 K, Relative Headspace Analysis | 36.8
293.15 K, headspace analysis | 44.3
298.15 K, Relative Headspace Analysis | 47.4
303.15 K, headspace analysis | 50.3
313.15 K, headspace analysis | 54.1
323.15 K, headspace analysis | 57.6
333.15 K, headspace analysis | 58.3
363.15 K, circulation equilibrium still | 54.3
371.15 K, circulation equilibrium still | 52.2

CC(C)(C)O [2-methylpropan-2-ol] + O
Conditions | activity coefficient
299.15 K, headspace analysis | 13.1
303.15 K, headspace analysis | 14.4
313.15 K, headspace analysis | 16.9
323.15 K, Rayleigh distallation | 19.9
333.15 K, Rayleigh distallation | 21.8
343.15 K, Rayleigh distallation | 23.5
353.15 K, circulation equilibrium still | 25.4
363.15 K, circulation equilibrium still | 26.3
371.15 K, circulation equilibrium still | 27.4

CCC(C)O (configuration not stated) [butan-2-ol] + O
Conditions | activity coefficient
273.35 K, Relative Headspace Analysis | 13.7
283.15 K, Relative Headspace Analysis | 17.9
293.15 K, Relative Headspace Analysis | 22.6
293.15 K, headspace analysis | 22.5
303.15 K, headspace analysis | 26.8
303.15 K, inert gas stripping | 26.8
313.15 K, headspace analysis | 31.3
313.15 K, inert gas stripping | 30.8
323.15 K, headspace analysis | 33.8
323.15 K, inert gas stripping | 34.4
333.15 K, headspace analysis | 36.9
333.15 K, inert gas stripping | 35.7
343.15 K, Rayleigh distallation | 38
353.15 K, Rayleigh distallation | 38.4
363.15 K, circulation equilibrium still | 40.4
371.15 K, circulation equilibrium still | 37.8

CC(C)O [propan-2-ol] + O
Conditions | activity coefficient
283.15 K, Relative Headspace Analysis | 5.37
293.15 K, Relative Headspace Analysis | 6.89
308.15 K, Relative Headspace Analysis | 8.84
333.15 K, Rayleigh distallation | 11.8
353.15 K, circulation equilibrium still | 12.5
363.15 K, circulation equilibrium still | 12.9
371.15 K, circulation equilibrium still | 13.1
